Data published in PubChem BioAssay (NCI).
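A five-concentration, 48-hour dose response in 96-well plates underlies each endpoint, interpolated linearly between surrounding concentrations. The concentration for 50% growth inhibition is given as GI50. TGI: concentration producing complete growth inhibition.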

Columns and labels:
Assay in all cases: NCI anticancer screen, dose series, 48 h
SR leukemia = tested on: SR leukemia
A549 NSCLC = tested on: A549 NSCLC
RPMI-8226 leukemia = tested on: RPMI-8226 leukemia
SK-MEL-28 melanoma = tested on: SK-MEL-28 melanoma
U251 CNS = tested on: U251 CNS
SNB-19 CNS = tested on: SNB-19 CNS
PC-3 prostate = tested on: PC-3 prostate
SNB-75 CNS = tested on: SNB-75 CNS
T-47D breast = tested on: T-47D breast
HS 578T breast = tested on: HS 578T breast

Row | Compound | TGI (SR leukemia) [µM] | TGI (A549 NSCLC) [µM] | TGI (RPMI-8226 leukemia) [µM] | TGI (SK-MEL-28 melanoma) [µM] | TGI (U251 CNS) [µM] | TGI (SNB-19 CNS) [µM] | GI50 (A549 NSCLC) [µM] | GI50 (PC-3 prostate) [µM] | TGI (PC-3 prostate) [µM] | GI50 (RPMI-8226 leukemia) [µM] | GI50 (SNB-75 CNS) [µM] | TGI (SNB-75 CNS) [µM] | GI50 (SK-MEL-28 melanoma) [µM] | GI50 (T-47D breast) [µM] | TGI (T-47D breast) [µM] | GI50 (U251 CNS) [µM] | GI50 (SNB-19 CNS) [µM] | GI50 (SR leukemia) [µM] | GI50 (HS 578T breast) [µM] | TGI (HS 578T breast) [µM]
1 | CCC12CCCN(Cc3ccccc3)C1c1c(n(C)c3ccccc13)CC2 (centres undefined) | > 253 | > 25.3 | > 253 | > 253 | > 253 | > 253 |  |  |  |  |  |  |  |  |  |  |  |  |  | 
2 | NC(N)=N/N=C/c1c(-c2ccsc2)nc2sccn12 |  | 43.7 | 20.7 | 27.6 | 30 | 32.6 | 21.7 | 13.2 | 26 | 4.83 | 13.4 | 26.4 | 14.2 | 16.8 | 31.9 | 15.8 | 16.7 |  |  | 
3 | C#CCOc1cccc(-c2ncc3cc(NC(=O)CCl)ccc3n2)c1 |  | 4.43 |  | 3.66 | 3.23 | 3.45 | 2.11 |  |  |  | 2.22 | 15.4 | 1.98 |  |  | 1.78 | 1.76 |  |  | 
4 | CNCc1ccccc1-c1csc([C@@H](C)Nc2nc(C)nc3cc(OC)c(OC)cc23)c1 | 2.38 | 5.73 | 4.3 | 3.53 | 3 | 6.69 | 1.94 | 4.01 | 12.3 | 1.77 | 1.33 | 2.65 | 1.95 | 1.85 | 4.1 | 1.48 | 1.84 | 0.624 |  | 
5 | CC/C=C\C[C@H](O)C/C=C1/C(=O)C(Cl)=C[C@@H]1C/C=C\CCCC(=O)OC |  | 7.52 | 0.88 | 1.31 | 1.39 | 3.31 | 2.64 | 0.54 | 2.33 | 0.21 | 1.88 | 4.65 | 0.432 | 0.985 | 4.37 | 0.339 | 0.946 |  | 0.626 | 6.76
6 | N.N.N.N.O=C([O-])CCl.O=C([O-])CCl.[Co+3].[O-][Cl+3]([O-])([O-])[O-] |  | > 100 | > 100 | > 100 | > 100 | > 100 | > 100 |  |  | > 100 | 61.3 | > 100 | > 100 |  |  | > 100 | > 100 |  |  | 
7 | CCN(CC)CCCN1CCc2c([nH]c3ccccc23)C1c1cccnc1 (centres undefined) | > 100 | > 100 | > 100 | > 100 | > 100 | > 100 |  |  |  |  |  | > 100 |  |  |  |  |  |  |  | 
8 | CC[As](CC)SC[C@H](C)C(=O)N1CCC[C@H]1C(=O)O | 0.0102 |  | 0.0112 | 0.212 | 0.576 |  |  | 0.106 | 0.589 | < 0.01 | 0.0796 | 0.628 | 0.055 | 0.414 | 1.96 | 0.197 |  | < 0.01 |  | 
9 | OC(CC1SCCCS1)c1ccccc1 (centres undefined) |  | > 100 | > 100 |  | > 100 | > 100 |  |  |  |  |  | > 100 |  |  |  |  |  |  |  | 
10 | CC(=O)N=C1N(/C=C2\C(=O)Oc3ccccc3C2=O)C(=O)/C(=C/c2cccc(Cl)c2Cl)N1C | 54.6 | > 100 | 52.5 | > 100 | > 100 |  |  |  | > 100 |  |  | 57.8 |  |  | > 100 |  |  |  |  | 26.1
11 | Oc1ccc(Nc2ncnc3c2sc2ncccc23)cc1 |  | > 100 | > 100 | > 100 | > 100 | > 100 | 0.0164 | 5.15 | > 100 | 0.0485 | 0.0595 | 7.35 | 3.75 |  |  | 0.0262 | 0.0246 |  | > 100 | > 100
12 | CC1(C)COC(C2(C)C(=O)C=C(c3ccccc3)c3ccccc32)=N1 (centres undefined) | > 100 | > 100 | > 100 | > 100 | > 100 | > 100 |  |  |  |  |  | > 100 |  |  |  |  |  |  |  | 
13 | COc1ccc2occ(CCC(=O)O)c2c1 |  | > 100 | > 100 | > 100 | > 100 | > 100 |  |  |  |  |  | > 100 |  |  |  |  |  |  |  | 
14 | O=C(CCN(C(=O)O)S(=O)(=O)c1ccc(NC(=O)c2ccccc2)cc1)Nc1ccccc1 | > 100 | > 46.4 | > 82.4 | > 100 | > 100 | > 100 |  |  |  |  |  | > 100 |  |  |  |  |  |  |  | 
15 | Nc1ccc([N+](=O)[O-])cc1N=C/C=C/c1ccccc1 | > 100 | > 100 | > 100 | > 100 | 77.5 | > 100 | 21.9 | 7.67 | > 100 | 5.05 | 10.8 | 96.6 | 29.7 | 15.7 | 77.7 | 6.16 | 31.5 | 3.48 |  | 
16 | CO/N=C(/C)c1cccc(Nc2cc(-n3nnc4ccccc43)nc3ccccc23)c1 |  | > 100 | > 100 | > 100 | > 100 | > 100 | 38.7 | 8.64 | 61.9 | 15.1 | > 100 | > 100 | > 100 | > 100 | > 100 | > 100 | 30.2 |  | 42.8 | > 100
17 | COc1cc(OCc2cccc(-c3ccc(C(O)c4nccs4)cc3)c2C)cc(OC)c1C=O (centres undefined) | 5.08 | 11.6 | 5.47 | 6.57 | 11.3 | 13.4 | 2.32 | 2.74 | 11.2 | 1.34 |  |  | 2.04 | 0.401 | 6.38 | 2.74 | 3.16 | 1.82 | 3.08 | 20.5
18 | CC1(C)C(C#N)C1C1=C(N2CCOCC2)[C@]2(C)C(OC(=O)c3ccccc3)CC[C@@H]2C1 (some centres undefined) | > 100 | > 100 |  | > 100 | > 100 | > 100 |  |  | > 100 |  |  | > 100 |  |  | > 100 |  |  |  |  | > 100
